In patent US7030067B2, “Bis(perfluoroalkanesulfonyl)imides and their salts as surfactants/additives for applications having extreme environments and methods therefor” (priority 2001, dated 2006):
Entries after “also recorded” stand apart in the source; their conditions may differ.

How the values were obtained:
[1] = Surface tension determination in water (Kruss K12 Tensiometer, Wilhelmy plate); type: physicochemical; details: for surface tension versus concentration profile, comparison in words: FIG. 1, 2, 3, 5
Description: Test Procedure I—Surface Tension Determination
(§1) All surface tensions were determined using a Kruss K12 Tensiometer. The tensiometer was integrated with an automatic dosimat and a computer, using a software package for dynamic contact angle (K121). The program was run using a Wilhelmy platinum plate (PL12) and glass sample vessel (GL7). All parts referenced above including instrument and computer are available from Kruss USA, Charlotte, N.C.

[2] = Surface tension measurements in tributyl phosphate; type: physicochemical; details: 2000 ppm in tributyl phosphate
Description: as §1
Surface tension measurements were obtained as described above with the exception that the measurments were obtained in tributyl phosphate.

[3] = DC conductivity of potassium salts in tributylphosphate; type: physicochemical; details: 3000 ppm in tributyl phosphate, 21.6-21.9° C.
Excerpt: Four tributylphosphate samples, with or without dissolved anti-erosion additives, measured for DC conductivity. The four samples were neat tributyl phosphate (control), tributyl phosphate with 3000 ppm FC-98, tributyl phosphate with 3000 ppm PBSK, and tributyl phosphate with 3000 ppm potassium bis(perfluorobutanesulfonyl)imide (DBIK).
The conductivity probe was carefully cleaned with EM Science OMNISOLV™ grade methanol, dried in a clean nitrogen stream, and allowed to equilibrate back to ambient temperature between samples.

[4] = Bioelimination study, fluorochemical sulfonate in male rat liver tissue; type: in vivo; details: for factor lower than C8F17SO3− / factor lower than C6F13SO3−: liver amount; for Amount of Sulfonate, Day 1 / Amount of Sulfonate, Day 14 / Amount of Sulfonate, Day 28: male rat liver tissue, dose 30 (C4), 10 (C6), 3 (C8) mg/kg body weight/day; for Amount of Sulfonate, Day 1: Day 1 following completion of feeding; for Amount of Sulfonate, Day 1N / Amount of Sulfonate, Day 14N / Amount of Sulfonate, Day 28N: male rat liver, normalized to a feeding level of 3 mg/kg body weight per day; for elimination from the body, in words: tested in the form of its potassium salt
Description: Comparative study of potassium perfluorobutanesulfonate (using a dose level of 30 mg/kg body weight/day), potassium perfluorohexanesulfonate (using a dose level of 10 mg/kg body weight/day), and potassium perfluorooctanesulfonate (using a dose level of 3 mg/kg body weight/day).

[5] = Solubility in 10/1 buffered oxide etch solution
[6] = 28 days following completion of feeding
[7] = 28 days following completion of feeding, after normalization to the same feeding levels
[8] = immediately following completion of feeding

O=S(=O)([N-]S(=O)(=O)C(F)(F)C(F)(F)C(F)(F)C(F)(F)F)C(F)(F)C(F)(F)C(F)(F)C(F)(F)F.[K+] [C4F9SO2NKSO2C4F9, potassium bis(perfluorobutanesulfonyl)imide]
surface tension (surface energy) ([1]; 10 ppm): 61.85 dynes/cm
surface tension (surface energy) ([1]; 100 ppm): 41.61 dynes/cm
surface tension (surface energy) ([1]; 1000 ppm): 34.02 dynes/cm
surface tension versus concentration profile, comparison in words [1]: surface tensions significantly less than PBSK and comparable to potassium perfluorooctanesulfonate at equal concentrations; also recorded: the same or better surface tension in water as C8F17SO3K
Surface Tension @ 2000 ppm [2]: 27.34 dyne/cm
Observed Conductivity [3]: 13.8 uS/cm

O=S(=O)([O-])C(F)(F)C(F)(F)C(F)(F)C(F)(F)C(F)(F)C(F)(F)F.[K+] [C6F13SO3^−, potassium perfluorohexanesulfonate]
factor lower than C8F17SO3− [4, 6]: 6.5
factor lower than C8F17SO3− [4, 7]: 21.5
factor lower than C8F17SO3− [4, 8]: 1.3
Amount of Sulfonate, Day 1 [4]: 327 ± 52 ppm
Amount of Sulfonate, Day 14 [4]: 61.9 ± 11.7 ppm
Amount of Sulfonate, Day 28 [4]: 36.3 ± 7.4 ppm
Amount of Sulfonate, Day 1N [4]: 98 ppm
Amount of Sulfonate, Day 14N [4]: 19 ppm
Amount of Sulfonate, Day 28N [4]: 11 ppm

O=S(=O)([O-])C(F)(F)C(F)(F)C(F)(F)C(F)(F)C(F)(F)C(F)(F)C(F)(F)C(F)(F)F.O=S(=O)([O-])C(F)(F)C(F)(F)C(F)(F)C(F)(F)C(F)(F)C(F)(F)C(F)(F)C(F)(F)F.[Ca+2] [Ca(C8F17SO3)2]
Surface Tension @ 2000 ppm [2]: 26.15 dyne/cm

O=S(=O)([N-]S(=O)(=O)C(F)(F)C(F)(F)C(F)(F)C(F)(F)F)C(F)(F)C(F)(F)C(F)(F)C(F)(F)F.[Li+] [DBI-Li, Lithium bis(perfluorobutanesulfonyl)imide]
surface tension ([1]; 200 ppm): 53.2 dyne/cm
surface tension ([1]; 450 ppm): 48.1 dyne/cm
surface tension ([1]; 960 ppm): 42.8 dyne/cm
surface tension ([1]; 1300 ppm): 41.5 dyne/cm
surface tension ([1]; 1700 ppm): 39.1 dyne/cm
surface tension ([1]; 2600 ppm): 36.0 dyne/cm
surface tension versus concentration profile, comparison in words [1]: significantly lower surface tensions than the shorter chain homologues

N.O=S(=O)(NS(=O)(=O)C(F)(F)C(F)(F)C(F)(F)C(F)(F)F)C(F)(F)C(F)(F)C(F)(F)C(F)(F)F [DBI-NH4, NH4^+−N(SO2C4F9)2]
surface tension ([1]; 200 ppm): 48.6 dyne/cm
surface tension ([1]; 450 ppm): 44.1 dyne/cm
surface tension ([1]; 960 ppm): 40.1 dyne/cm
surface tension ([1]; 1300 ppm): 38.7 dyne/cm
surface tension ([1]; 1700 ppm): 35.9 dyne/cm
surface tension ([1]; 2600 ppm): 31.5 dyne/cm
surface tension versus concentration profile, comparison in words [1]: better surfactants than NH4^+−OSO2C8F17

O=S(=O)([O-])C(F)(F)C(F)(F)C(F)(F)C(F)(F)F.[K+] [Example C4F9SO3K, Potassium perfluorobutanesulfonate]
surface tension (surface energy) ([1]; 10 ppm): 70 dynes/cm
surface tension (surface energy) ([1]; 100 ppm): 67.5 dynes/cm
surface tension (surface energy) ([1]; 1000 ppm): 53 dynes/cm
surface tension versus concentration profile, comparison in words [1]: less effective than perfluorooctanesulfonate in lowering the surface tension of water
factor lower than C6F13SO3− [4, 6]: > 1400
factor lower than C6F13SO3− [4, 7]: 4400
factor lower than C6F13SO3− [4, 8]: > 100
Amount of Sulfonate, Day 1 [4]: 3.09 ± 1.58 ppm
Amount of Sulfonate, Day 14 [4]: 0.126 ± 0.084 ppm
Amount of Sulfonate, Day 28 [4]: 0.025 ± 0.015 ppm
Amount of Sulfonate, Day 1N [4]: 0.31 ppm
Amount of Sulfonate, Day 14N [4]: 0.0126 ppm
Amount of Sulfonate, Day 28N [4]: 0.0025 ppm
elimination from the body, in words ([4]; listed as C4F9SO3^−): unexpectedly fast and effective elimination
elimination from the body, in words ([4]; listed as perfluorobutanesulfonate): eliminates from the body more rapidly than perfluorohexanesulfonate and much more rapidly than perfluorooctanelsulfonate
Surface Tension @ 2000 ppm [2]: 27.32 dyne/cm
Observed Conductivity [3]: 3.5 uS/cm

O=S(=O)([O-])C(F)(F)C(F)(F)C(F)(F)C(F)(F)C(F)(F)C(F)(F)C(F)(F)C(F)(F)F.[K+] [Example C8F17SO3K, Potassium perfluorooctanesulfonate]
surface tension (surface energy) ([1]; 10 ppm): 67.68 dynes/cm
surface tension (surface energy) ([1]; 100 ppm): 54.09 dynes/cm
surface tension (surface energy) ([1]; 1000 ppm): 33.17 dynes/cm
Amount of Sulfonate, Day 1 [4]: 419 ± 86 ppm
Amount of Sulfonate, Day 14 [4]: 309 + 34 ppm
Amount of Sulfonate, Day 28 [4]: 237 ± 25 ppm
Amount of Sulfonate, Day 1N [4]: 419 ppm
Amount of Sulfonate, Day 14N [4]: 309 ppm
Amount of Sulfonate, Day 28N [4]: 237 ppm
Surface Tension @ 2000 ppm [2]: 26.96 dyne/cm

N.O=S(=O)(O)C(F)(F)C(F)(F)C(F)(F)C(F)(F)C(F)(F)C(F)(F)C(F)(F)C(F)(F)F [FC-93, ammonium perfluorooctanesulfonate]
solubility in buffered oxide etch ([5]; all concentrations (FIG. 4)): precipitated

O=S(=O)([O-])C1(F)C(F)(F)C(F)(F)C(F)(C(F)(F)C(F)(F)F)C(F)(F)C1(F)F.[K+] (stereo not drawn) [FC-98, Potassium perfluoroethylcyclohexanesulfonate]
Surface Tension @ 2000 ppm [2]: 26.94 dyne/cm
Observed Conductivity [3]: 3.2 uS/cm

O=S(=O)([N-]S(=O)(=O)C(F)(F)C(F)(F)C(F)(F)C(F)(F)F)C(F)(F)C(F)(F)C(F)(F)C(F)(F)F.O=S(=O)([N-]S(=O)(=O)C(F)(F)C(F)(F)C(F)(F)C(F)(F)F)C(F)(F)C(F)(F)C(F)(F)C(F)(F)F.[Mg+2] [Mg (DBI)2, Mg^+2[^−N(SO2C4F9)2]2]
surface tension ([1]; 200 ppm): 46.6 dyne/cm
surface tension ([1]; 450 ppm): 40.2 dyne/cm
surface tension ([1]; 960 ppm): 35.0 dyne/cm
surface tension ([1]; 1300 ppm): 32.0 dyne/cm
surface tension ([1]; 1700 ppm): 29.0 dyne/cm
surface tension ([1]; 2600 ppm): 26.3 dyne/cm
Surface Tension @ 2000 ppm [2]: 27.04 dyne/cm

O=S(=O)([O-])C(F)(F)C(F)(F)C(F)(F)C(F)(F)C(F)(F)C(F)(F)C(F)(F)C(F)(F)F.O=S(=O)([O-])C(F)(F)C(F)(F)C(F)(F)C(F)(F)C(F)(F)C(F)(F)C(F)(F)C(F)(F)F.[Mg+2] [Mg(C8F17SO3)2]
Surface Tension @ 2000 ppm [2]: 27.36 dyne/cm

O.O.O.O.O.O.O=S(=O)([O-])C(F)(F)C(F)(F)C(F)(F)C(F)(F)F.O=S(=O)([O-])C(F)(F)C(F)(F)C(F)(F)C(F)(F)F.[Mg+2] [Mg(SO3C4F9)2 · 6H2O]
Surface Tension @ 2000 ppm [2]: 26.93 dyne/cm

O=S(=O)(NS(=O)(=O)C(F)(F)C(F)(F)C(F)(F)C(F)(F)F)C(F)(F)C(F)(F)C(F)(F)C(F)(F)F [bis(perfluorobutanesulfonyl)imide, HN(SO2C4F9)2]
appearance of solution ([5]; 1000 ppm): slightly hazy to the eye
surface tension versus concentration profile, comparison in words [1]: better surfactants than NH4^+−OSO2C8F17

[^−N(SO2C4F9)2]2 (+)H3NCH(CH3)CH2[OCH(CH3)CH2]a[OCH2CH2]8.5[OCH(CH3)CH2]CNH3(+) (a+c=2.5) [(DBI)2 JEFFAMINE ™ ED600]
surface tension (surface energy) ([1]; 10 ppm): 57.4 dynes/cm
surface tension (surface energy) ([1]; 100 ppm): 40.7 dynes/cm
surface tension (surface energy) ([1]; 1000 ppm): 32.7 dynes/cm
surface tension versus concentration profile, comparison in words [1]: significantly lower surface tensions than C4F9SO3K
